For assay [1], the target named is T1, biotinylated KRAS protein containing G12C/C51S/C80L/C118S mutations (SEQ ID NO: 3) (Homo sapiens, UniProt P01116, C118S/C51S/C80L/G12C).
T1 construct: biotin acceptor peptide (Avi-type, […]
Nature of the assay: Test Example 4: SOS-catalyzed nucleotide exchange assay (TR-FRET). In kind it is biochemical. The following applies: 60-minute incubation with compound, then SOS and GTP, read-out: GNE IC50. On the procedure:
Test Example 4: Procedure for SOS-Catalyzed Nucleotide Exchange Assay
The SOS-catalyzed nucleotide exchange assay utilizes a preformed complex of recombinant biotinylated KRAS protein containing G12C/C51S/C80L/C118S mutations (SEQ ID NO: 3) (referred to as Biotinylated KRAS G12C protein hereafter), Bodipy-GDP, and Terbium-streptavidin. Compounds are added to this complex and then after a 60-minute incubation time the mixture is treated with SOS and unlabeled GTP. Small molecule inhibitors stabilize the Bodipy-GDP complex whereas the untreated protein rapidly exchanges Bodipy-GDP for unlabeled GTP resulting in reduced TR-FRET signal.
Biotinylated KRAS G12C protein is diluted to 2 μM in an EDTA buffer (20 mM HEPES, 50 mM sodium chloride, 10 mM EDTA, and 0.01% Tween) and incubated at room temperature for one hour. This mixture is then further diluted to 90 nM in an assay buffer (20 mM HEPES, 150 mM sodium chloride, 10 mM magnesium chloride, and 0.005% Tween) containing 15 nM of Terbium-Streptavidin (Invitrogen, catalog #PV3577) and 900 nM of Bodipy-GDP (Invitrogen, G22360) and incubated at room temperature for six hours. This solution is referred to as Biotinylated KRAS G12C stock solution and is then diluted to 9 nM in assay buffer to give the KRAS G12C assay solution.
Each test compound (10 mM stock in DMSO) is diluted in DMSO to make a 10-point, 3-fold dilution series in a 384-well low dead volume microplate (Labcyte, catalog #LP-0200). Once titrations are made, 10 nL of the diluted compounds is acoustically dispensed into a 384-well plate (Corning, catalog #3820) using an Echo 550 (Labcyte).
Each well receives 6 μL of Biotinylated KRAS G12C assay solution using a BioRAPTR (Beckman Coulter) and is incubated at room temperature for 60 minutes in a humidified chamber. Each well then receives 3 μL of 120 nM recombinant human SOS protein and 9 mM GTP (Sigma, G8877) in assay buffer and is incubated at room temperature for 60 minutes in a humidified chamber.
The time-resolved fluorescence resonance energy transfer signal of both plates is measured on an Envision (PerkinElmer) plate reader: Excitation filter=340 nm; emission 1=495 nm; emission 2=520 nm; dichroic mirror=D400/D505; delay time=100 μs. The signal of each well is determined as the ratio of the emission at 520 nm to that at 495 nm. Percent effect of each well is determined after normalization to control wells containing DMSO (no effect) or a saturating concentration of inhibitor (max effect). The apparent effect as a function of compound concentration is fit to a four-parameter logistic equation.

Assay [2] concerns the target T2, interaction between KRAS G12C and cRAF-RBD (Homo sapiens, UniProt P01116, G12C).
T2 construct: TEV protease site (ENLYFQG); made in house; host or cells: E. coli
As to the kind of experiment: Test Example 2: inhibitory activity on interaction between KRAS G12C and cRAF (Alpha technology). The following applies: GMPPNP-bound KRAS G12C incubated with compound at 25° C. for 1 hour, then cRAF-RBD. It counts as binding. On the procedure: Test Example 2: Evaluation of Inhibitory Activity of Compounds on Interaction Between KRAS G12C and cRAF (In Vitro)
Interaction between recombinant KRAS G12C mutant protein (SEQ ID NO: 1) and cRAF RAS-binding domain (cRAF-RBD, amino acids 50-132, Jena Biosciences GmbH) was measured using Alpha technology (PerkinElmer Inc.).
Recombinant KRAS G12C protein with an N-terminal His-tag was expressed in E. coli and purified by affinity chromatography. To prepare GTP-bound form and GDP-bound form of KRAS G12C protein, 50 μM KRAS G12C protein was incubated with 1 mM GMPPNP (Jena Bioscience GmbH) and 1 mM GDP, respectively, in a loading buffer (20 mM Tris-HCl (pH 7.5), 50 mM NaCl, 1 mM DTT and 2.5 mM EDTA) for 1 hour on ice. After the incubation, MgCl2 was added to a final concentration of 10 mM, followed by incubation at room temperature for 30 minutes. The mixture was allowed to pass through a NAP-5 column to remove free nucleotides and purified, and the resultant nucleotide-bound KRAS G12C protein was used for compound evaluation.
For the measurement of the inhibitory activity of compounds on interaction between KRAS G12C and cRAF-RBD, GMPPNP-bound KRAS G12C protein was incubated with various concentrations of compound in a reaction buffer (20 mM Tris-HCl (pH 7.5), 100 mM NaCl, 1 mM MgCl2, 1 mM TCEP, 0.1% Tween 20) at 25° C. for 1 hour. After the incubation, recombinant cRAF-RBD and Alpha detection reagents were added and incubated at room temperature for 1.5 hours for binding. Interaction of KRAS G12C and cRAF-RBD was monitored by measuring Alpha signal. Inhibition % was calculated using the signal from the reaction without test compound (DMSO control) as 0% inhibition and the signal from the reaction using GDP-bound KRAS G12C in place of GMPPNP-bound KRAS G12C as 100% inhibition. IC50 values were calculated from dose titration curve using curve fitting by XLfit software (IDBS).

For another assay, the system named is MIA PaCa-2 cells. Nature of the assay: Test Example 3: growth inhibition activity on KRAS-G12C mutant cell line (MIA PaCa-2). It counts as cell-based. To be noted: Homo sapiens, 72 h, MIA PaCa-2, 3-day culture, CellTiter-Glo 3D, read-out: CTX MiaPaCa IC50. On the procedure:
Test Example 3: Assay of Growth Inhibition Activity on KRAS-G12C Mutant Cell Line (MIA PaCa-2) (In Vitro)
MIA PaCa-2 cells (provided by Sumitomo Dainippon Pharma Co., Ltd.), which are a KRAS-G12C mutant human pancreas cancer cell line, were suspended in a 10% fetal bovine serum-containing RPMI1640 medium (manufactured by Fujifilm Wako Pure Chemical Corporation.). The cell suspension was seeded into each well of a 384-well U bottom microplate and cultured in an incubator containing 5% CO2 gas at 37° C. for 1 day. The compounds obtained in the Examples section were used as test compounds and were dissolved in DMSO, respectively, and each test compound was diluted with DMSO to give a concentration 500 times the final concentration. The resultant solution of the test compound in DMSO was diluted with the medium used for suspending cells and added to each well of the cell-culture plate to give a DMSO final concentration of 0.2%, followed by culture in an incubator containing 5% CO2 gas at 37° C. for another 3 days. The cell count after 3-day culture in the presence of the test compound was measured using CellTiter-Glo 3D Reagent (manufactured by Promega Corporation). To all cells were added with CellTiter-Glo 3D Reagent and mixed for 10 minutes. 30 minutes after mixing, luminescence was measured by a plate reader. The growth inhibition rate was calculated from the following equation, and the concentration of the test compound at which 50% inhibition was achieved (IC50 (nM)) was determined.
[formula] • T: the emission intensity in a well into which a test compound was added. • C: the emission intensity in a well into which a test compound was not added.
On the technique in general: Cellular ATP, detected with luciferase, serves as a proxy for viable cell number.

The target of assay [3] is T3, Recombinant KRAS G12C mutant protein (amino acids 1-169, SEQ ID NO: 1) (Homo sapiens, UniProt P01116, G12C).
T3 construct: His6 (N); TEV protease site (ENLYFQG; named from own knowledge) (N); made in house; host or cells: E. coli
T3 sequence (P01116 with tags, fused parts or gaps isoform P01116-2 G12C): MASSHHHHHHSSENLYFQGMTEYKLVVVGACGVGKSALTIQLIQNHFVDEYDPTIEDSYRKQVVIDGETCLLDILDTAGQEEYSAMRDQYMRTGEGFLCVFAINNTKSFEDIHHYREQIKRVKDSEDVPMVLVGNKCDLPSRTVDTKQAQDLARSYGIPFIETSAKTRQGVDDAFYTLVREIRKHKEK
Nature of the assay: Test Example 1: inhibitory activity on KRAS G12C nucleotide (GDP-GTP) exchange reaction in vitro. To be noted: BODIPY FL GDP-bound KRAS G12C incubated with compound at 25° C. for 1 hour, then SOS1 and GMPPNP, read-out: GNE IC50. In kind it is biochemical. As to the method:
Test Example 1: Evaluation of inhibitory activity of compounds on KRAS G12C nucleotide (GDP-GTP) exchange reaction in vitro
Recombinant KRAS G12C mutant protein (amino acids 1-169, SEQ ID NO: 1) and cleaved recombinant SOS1 (amino acids 564-1049, SEQ ID NO:2) proteins were expressed in E. coli and purified by affinity chromatography.
To prepare BODIPY FL GDP-bound KRAS G12C protein, 50 μM KRAS G12C protein was incubated with 0.5 mM BODIPY FL GDP in a loading buffer (20 mM Tris-HCl (pH 7.5), 50 mM NaCl, 1 mM DTT and 2.5 mM EDTA) for 1 hour on ice. After the incubation, MgCl2 was added to a final concentration of 10 mM, followed by incubation at room temperature for 30 minutes. The mixture was allowed to pass through a NAP-5 column to remove free nucleotides and purified BODIPY FL GDP-bound KRAS G12C protein was used for compound evaluation.
For the measurement of the inhibitory activity of compounds on GDP-GTP exchange rate of recombinant KRAS G12C, BODIPY FL GDP-bound KRAS G12C protein was incubated with various concentrations of compound in a reaction buffer (20 mM Tris-HCl (pH 7.5), 100 mM NaCl, 1 mM MgCl2, 2 mM DTT, 0.1% Tween 20) at 25° C. for 1 hour. After the incubation, recombinant SOS1 and Guanosine-5′-[(β,γ)-imido]triphosphate, Tetralithium salt (GMPPNP) (Jena Bioscience GmbH) were added and incubated at room temperature for 30 minutes to proceed SOS1-dependent GDP-GTP exchange reaction on KRAS G12C. Replacement of BODIPY FL GDP by GMPPNP was measured by calculating the ratio of fluorescence intensities of BODIPY FL before and after the exchange reaction. Inhibition % was calculated by setting the fluorescence ratio from the reaction without test compound (DMSO control) and the fluorescence ratio from the reaction without SOS1 and GMPPNP as 0% and 100% inhibition, respectively. IC50 values were calculated from dose titration curve using curve fitting by XLfit software (IDBS).

For four compounds, IC50 results are on record in patent publication US20240417408A1, “SMALL MOLECULE INHIBITORS OF KRAS G12C MUTANT” (MERCK SHARP & DOHME CORP., priority 2021, published 2024).

T2 sequence (P01116 with tags, fused parts or gaps isoform P01116-2 G12C): as above
T1 sequence (P01116 with tags, fused parts or gaps isoform P01116-2 G12C/C51S/C80L/C118S): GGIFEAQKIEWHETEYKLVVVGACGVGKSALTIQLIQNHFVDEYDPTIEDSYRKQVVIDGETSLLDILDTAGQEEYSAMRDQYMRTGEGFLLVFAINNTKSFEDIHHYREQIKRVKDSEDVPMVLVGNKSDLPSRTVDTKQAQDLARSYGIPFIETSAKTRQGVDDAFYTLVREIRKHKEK

Consider `C#Cc1cccc2cccc(C3Cc4nc(OCC56CCCN5CC(F)C6)nc(N5CCN(C(=O)C=CCN6CCC(OC)CC6)C(CC#N)C5)c4CO3)c12` (single isomer, unassigned) [Example 25a], for which the IC50 (as a rule, the concentration at which inhibition is half-maximal) in assay [1] was 142 nM.
On to `C#Cc1cccc2cc(O)cc(C3Cc4nc(OC[C@@H]5CCCN5C)nc(N5CCN(C(=O)/C=C/CN6CCC(OC)CC6)[C@@H](CO)C5)c4CO3)c12` (stereo partly drawn) [Example 19, (E)-1-((2R)-4-(7-(8-ethynyl-3-hydroxynaphthalen-1-yl)-2-(((S)-1-methylpyrrolidin-2-yl)methoxy)-7,8-dihydro-5H-pyrano[4,3-d]pyrimidin-4-yl)-2-(hydroxymethyl)-piperazin-1-yl)-4-(4-meth-oxypiperidin-1-yl)but-2-en-1-one], for which the IC50 was 3550 nM in assay [2], 8250 nM with MIA PaCa-2 cells and 46.7 nM in assay [3].
Take `COC1CCN(C/C=C/C(=O)N2CCN(c3nc(OCC4(CN5CCOCC5)CC4)nc4c3COC3(Cc5ccccc5C3)C4)C[C@@H]2CC#N)CC1` [Example 20, (S,E)-2-(1-(4-(4-methoxypiperidin-1-yl)but-2-enoyl)-4-(2′-((1-(morpholinomethyl)cyclopropyl)methoxy)-1,3,5′,8′-tetrahydrospiro[indene-2,7′-pyrano[4,3-d]pyrimidin]-4′-yl)piperazin-2-yl)acetonitrile]: the results for the IC50 (in assay [2]; with MIA PaCa-2 cells; in assay [3]) were greater than 6670 nM, 3350 nM and 174 nM, respectively.
As for `COC1CCN(C/C=C/C(=O)N2CCN(c3nc(OCC4(CN5CCOCC5)CC4)nc4c3COC3(CCc5cccc(Br)c53)C4)C[C@@H]2CC#N)CC1` (stereo partly drawn) [Example 21, 2-((2S)-4-(7-bromo-2′-((1-(morpholinomethyl)cyclopropyl)methoxy)-2,3,5′,8′-tetrahydrospiro[indene-1,7′-pyrano[4,3-d]pyrimidin]-4′-yl)-1-((E)-4-(4-methoxypiperidin-1-yl)but-2-enoyl)piperazin-2-yl)acetonitrile], the IC50 was greater than 6670 nM in assay [2], 1130 nM with MIA PaCa-2 cells and 287 nM in assay [3].
